Measurements from patent US8691827B2, “Amino tetrahydro-pyridopyrimidine PDE10 inhibitors” (Merck Sharp & Dohme Corp., priority 2009, dated 2014).

Biological target: human PDE10A2 (Homo sapiens (Human), UniProt Q9Y233)
Test: PDE10 fluorescence polarization (IMAP FP) inhibition assay
Assay type: biochemical
Conditions: FAM-labeled cAMP 50 nM, room temperature, read-out: PDE10A Ki
Method: The activity of the compounds in accordance with the present invention as PDE10 inhibitors may be readily determined without undue experimentation using a fluorescence polarization (FP) methodology that is well known in the art (Huang, W., et al., J. Biomol Screen, 2002, 7: 215).
In a typical experiment the PDE10 inhibitory activity of the compounds of the present invention was determined in accordance with the following experimental method. PDE10A2 was amplified from human fetal brain cDNA (Clontech, Mountain View, Calif.) using a forward primer corresponding to nucleotides 56-77 of human PDE10A2 (Accession No. AF127480, Genbank Identifier 4894716), containing a Kozak consensus sequence, and a reverse primer corresponding to nucleotides 2406-2413 of human PDE10A2 (Accession No. AF127480, Genbank Identifier 4894716). Amplification with Easy-A polymerase (Stratagene, La Jolla, Calif.) was 95° C. for 2 minutes followed by thirty three cycles of 95° C. for 40 seconds, 55° C. for 30 seconds, and 72° C. for 2 minutes 48 seconds. Final extension was 72° C. for 7 minutes. The PCR product was TA cloned into pcDNA3.2-TOPO (Invitrogen, Carlsbad, Calif.) according to standard protocol. AD293 cells with 70-80% confluency were transiently transfected with human PDE10A2/pcDNA3.2-TOPO using Lipofectamine 2000 according to manufacturer specifications (Invitrogen, Carlsbad, Calif.). Cells were harvested 48 hours post-transfection and lysed by sonication (setting 3, 10×5 sec pulses) in a buffer containing 20 mM HEPES, 1 mM EDTA and protease inhibitor cocktail (Roche). Lysate was collected by centrifugation at 75,000×g for 20 minutes. Supernatant containing the cytoplasmic fraction was used for evaluation of PDE10A2 activity. The fluorescence polarization assay for cyclic nucleotide phosphodiesterases was performed using an IMAP® FP kit supplied by Molecular Devices, Sunnyvale, Calif. (product # R8139). IMAP® technology has been applied previously to phosphodiesterase assays (Huang, W., et al., J. Biomol Screen, 2002, 7: 215). Assays were performed at room temperature in 384-well microtiter plates with an incubation volume of 20.2 μL. Solutions of test compounds were prepared in DMSO and serially diluted with DMSO to yield 8 μL of each of 10 solutions differing by 3-fold in concentration, at 32 serial dilutions per plate. 100% inhibition is determined using a known PDE10 inhibitor, which can be any compound that is present at 5,000 times its Ki value in the assay described as follows, such as papaverine (see Siuciak, et al. Neuropharmacology (2006) 51:386-396; Becker, et al. Behav Brain Res (2008) 186(2):155-60; Threlfell, et al., J Pharmacol Exp Ther (2009) 328(3):785-795), 2-{4-[pyridin-4-yl-1-(2,2,2-trifluoroethyl)-1H-pyrazol-3-yl]phenoxymethyl}quinoline succinic acid or 2-[4-(1-methyl-4-pyridin-4-yl-1H-pyrazol-3-yl)-phenoxymethyl]quinoline succinic acid (see Schmidt, et al. J Pharmacol Exp Ther (2008) 325:681-690; Threlfell, et al., J Pharmacol Exp Ther (2009) 328(3): 785-795). 0% of inhibition is determined by using DMSO (1% final concentrations). A Labcyte Echo 555 (Labcyte, Sunnyvale, Calif.) is used to dispense 200 nL from each well of the titration plate to the 384 well assay plate. A solution of enzyme ( 1/1600 dilution from aliquots; sufficient to produce 20% substrate conversion) and a separate solution of FAM-labeled cAMP PDE from Molecular Devices (product # R7506), at a final concentration of 50 nM are made in the assay buffer (10 mM Tris HCl, pH 7.2, 10 mM MgCl2, 0.05% NaN3 0.01% Tween-20, and 1 mM DTT). The enzyme and the substrate are then added to the assay plates in two consecutive additions of 10 μL, and then shaken to mix. The reaction is allowed to proceed at room temperature for 30 minutes. A binding solution is then made from the kit components, comprised of 80% Solution A, 20% Solution B and binding reagent at a volume of 1/600 the total binding solution. […]

Sequence of human PDE10A2 (Q9Y233 267-1055): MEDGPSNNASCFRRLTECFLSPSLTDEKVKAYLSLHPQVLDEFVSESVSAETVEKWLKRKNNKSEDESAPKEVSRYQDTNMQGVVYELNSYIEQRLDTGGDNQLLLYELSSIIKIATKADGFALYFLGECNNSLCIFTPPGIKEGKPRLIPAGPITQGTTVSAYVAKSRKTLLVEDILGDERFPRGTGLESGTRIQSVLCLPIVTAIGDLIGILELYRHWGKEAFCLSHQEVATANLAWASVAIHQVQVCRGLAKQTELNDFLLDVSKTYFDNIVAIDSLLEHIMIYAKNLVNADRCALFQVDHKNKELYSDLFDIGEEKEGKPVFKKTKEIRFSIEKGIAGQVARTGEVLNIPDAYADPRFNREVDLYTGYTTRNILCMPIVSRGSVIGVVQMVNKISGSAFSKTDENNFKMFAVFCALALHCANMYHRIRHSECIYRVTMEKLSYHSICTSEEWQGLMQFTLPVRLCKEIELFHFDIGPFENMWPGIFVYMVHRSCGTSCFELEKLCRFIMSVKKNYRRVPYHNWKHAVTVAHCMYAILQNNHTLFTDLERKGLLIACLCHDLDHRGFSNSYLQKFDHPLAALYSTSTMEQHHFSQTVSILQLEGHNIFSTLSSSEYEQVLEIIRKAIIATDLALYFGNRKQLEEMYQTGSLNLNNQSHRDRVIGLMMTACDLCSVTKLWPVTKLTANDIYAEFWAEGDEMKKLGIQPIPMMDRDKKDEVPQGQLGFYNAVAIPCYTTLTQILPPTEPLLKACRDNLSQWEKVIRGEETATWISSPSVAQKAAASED

Compound	Ki [nM]
O=C(Nc1ccccc1)N1CCc2nc(-c3ccncc3)nc(NCc3ccccn3)c2C1 [Compound 1-2, N-phenyl-2-pyridin-4-yl-4-[(pyridin-2-ylmethyl)amino]-7,8-dihydropyrido[4,3-d]pyrimidine-6(5H)-carboxamide]	192
O=C(Nc1ccccc1)N1CCc2nc(-c3ccncc3)nc(N3CCc4ccncc4C3)c2C1 [Compound 1-3, 4-(3,4-dihydro-2,7-naphthyridin-2(1H)-yl)-N-phenyl-2-pyridin-4-yl-7,8-dihydropyrido[4,3-d]pyrimidine-6(5H)-carboxamide]	162
O=C(Nc1ccccc1)N1CCc2nc(-c3ccc(F)nc3)nc(NCCc3ccccn3)c2C1 [Compound 1-6, 2-(6-fluoropyridin-3-yl)-N-phenyl-4-[(2-pyridin-2-ylethyl)amino]-7,8-dihydropyrido[4,3-d]pyrimidine-6(5H)-carboxamide]	114
CC(C)CC(=O)N1CCc2nc(-c3cncc(-c4cncnc4)c3)nc(N(C)Cc3ccccc3)c2C1 [Compound 1-7, 1-{4-[benzyl(methyl)amino]-2-[5-(pyrimidin-5-yl)pyridin-3-yl[-7,8-dihydropyrido]4,3-d]pyrimidin-6(5H)-yl}-3-methylbutan-1-one]	63
CC(C)CC(=O)N1CCc2nc(-c3cncc(-c4cn[nH]c4)c3)nc(N(C)Cc3ccccc3)c2C1 [Compound 1-8, 1-{4-[benzyl(methyl)amino]-2-[5-(1H-pyrazol-4-yl)pyridin-3-yl]-7,8-dihydropyrido[4,3-d]pyrimidin-6(5H)-yl}-3-methylbutan-1-one]	15
O=C(Nc1ccccc1)N1CCc2nc(-c3ccncc3)nc(NCCc3ccccn3)c2C1 [Compound 1-1, N-phenyl-2-pyridin-4-yl-4-[(2-pyridin-2-ylethyl)amino]-7,8-dihydropyrido[4,3-d]pyrimidine-6(5H)-carboxamide]	47.9

More lines, in order of falling Ki, values ahead:

Ki [nM]	Compound
153	COc1cccc(C2CN(c3nc(-c4cccnc4)nc4c3CN(C(=O)Nc3ccccc3)CC4)CCN2)c1 (stereo not drawn) [Compound 1-4, 4-[3-(3-methoxyphenyl)-piperazin-1-yl]-N-phenyl-2-pyridin-3-yl-7,8-dihydropyrido[4,3-d]pyrimidine-6(5H)-carboxamide]
95.3	COC(=O)NCCNc1nc(-c2cccnc2)nc2c1CN(C(=O)Nc1ccccc1)CC2 [Compound 1-5, methyl-(2-{[6-(anilinocarbonyl)-2-pyridin-3-yl-5,6,7,8-tetrahydropyrido[4,3-d]pyrimidin-4-yl]amino}ethyl)carbamate]
2.19	O=C(Nc1ccccc1)N1CCc2nc(-c3cccnc3)nc(NCc3c[nH]c(-c4ccccc4)n3)c2C1 [Compound 1-9, N-phenyl-4-{[(2-phenyl-1H-imidazol-4-yl)methyl]amino}-2-(pyridin-3-yl)-7,8-dihydropyrido[4,3-d]pyrimidine-6(5H)-carboxamide]
